Source: PMC7486443, “Generation of Phenothiazine with Potent Anti-TLK1 Activity for Prostate Cancer Therapy” (iScience, 2020)

Experiments:
Experiment in all cases: biochemical
Set-up in all cases: DiscoverX KINOMEscan scanMAX competition binding panel, single concentration, percent of control; remaining binding: dose or concentration left out as unconfirmed
Conditions in all cases: KINOMEscan binding, percent of control; read-out: Table S4_SCANMAX REPORT - related to Fig. 1 / Percent Control
CSNK1A1 = CSNK1A1 (Homo sapiens, UniProt P48729)
CSNK1A1, sequence (P48729 whole entry): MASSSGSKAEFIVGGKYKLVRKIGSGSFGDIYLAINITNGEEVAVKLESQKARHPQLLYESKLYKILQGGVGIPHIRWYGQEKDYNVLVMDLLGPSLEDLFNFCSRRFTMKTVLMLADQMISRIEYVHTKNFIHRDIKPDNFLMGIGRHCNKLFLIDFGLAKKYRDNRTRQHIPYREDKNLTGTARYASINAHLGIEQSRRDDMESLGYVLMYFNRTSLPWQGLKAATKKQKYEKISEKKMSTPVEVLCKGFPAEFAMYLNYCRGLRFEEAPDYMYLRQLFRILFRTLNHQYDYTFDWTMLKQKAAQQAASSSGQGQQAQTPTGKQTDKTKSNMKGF

CLK3 = CLK3 (Homo sapiens, UniProt P49761)
GRK4 = GRK4 (Homo sapiens, UniProt P32298)
GRK4, sequence (P32298 whole entry): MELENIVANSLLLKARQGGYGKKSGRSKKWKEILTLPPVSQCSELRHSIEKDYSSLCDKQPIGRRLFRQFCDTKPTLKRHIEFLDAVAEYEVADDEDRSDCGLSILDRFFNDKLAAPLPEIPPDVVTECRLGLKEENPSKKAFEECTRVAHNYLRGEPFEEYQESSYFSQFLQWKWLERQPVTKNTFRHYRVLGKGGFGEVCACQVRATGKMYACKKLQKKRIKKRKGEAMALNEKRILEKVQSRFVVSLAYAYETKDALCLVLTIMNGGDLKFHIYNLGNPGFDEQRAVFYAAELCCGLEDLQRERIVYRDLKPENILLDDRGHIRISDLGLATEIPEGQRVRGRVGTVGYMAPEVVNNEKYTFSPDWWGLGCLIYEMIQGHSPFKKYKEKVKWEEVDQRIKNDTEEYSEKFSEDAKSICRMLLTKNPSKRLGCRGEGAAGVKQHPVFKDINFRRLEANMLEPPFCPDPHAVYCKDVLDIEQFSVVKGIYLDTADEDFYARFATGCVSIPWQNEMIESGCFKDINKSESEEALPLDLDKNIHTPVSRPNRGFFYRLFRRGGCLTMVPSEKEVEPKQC

EPHA5 = EPHA5 (Homo sapiens, UniProt P54756)
EPHA5, sequence (P54756 whole entry): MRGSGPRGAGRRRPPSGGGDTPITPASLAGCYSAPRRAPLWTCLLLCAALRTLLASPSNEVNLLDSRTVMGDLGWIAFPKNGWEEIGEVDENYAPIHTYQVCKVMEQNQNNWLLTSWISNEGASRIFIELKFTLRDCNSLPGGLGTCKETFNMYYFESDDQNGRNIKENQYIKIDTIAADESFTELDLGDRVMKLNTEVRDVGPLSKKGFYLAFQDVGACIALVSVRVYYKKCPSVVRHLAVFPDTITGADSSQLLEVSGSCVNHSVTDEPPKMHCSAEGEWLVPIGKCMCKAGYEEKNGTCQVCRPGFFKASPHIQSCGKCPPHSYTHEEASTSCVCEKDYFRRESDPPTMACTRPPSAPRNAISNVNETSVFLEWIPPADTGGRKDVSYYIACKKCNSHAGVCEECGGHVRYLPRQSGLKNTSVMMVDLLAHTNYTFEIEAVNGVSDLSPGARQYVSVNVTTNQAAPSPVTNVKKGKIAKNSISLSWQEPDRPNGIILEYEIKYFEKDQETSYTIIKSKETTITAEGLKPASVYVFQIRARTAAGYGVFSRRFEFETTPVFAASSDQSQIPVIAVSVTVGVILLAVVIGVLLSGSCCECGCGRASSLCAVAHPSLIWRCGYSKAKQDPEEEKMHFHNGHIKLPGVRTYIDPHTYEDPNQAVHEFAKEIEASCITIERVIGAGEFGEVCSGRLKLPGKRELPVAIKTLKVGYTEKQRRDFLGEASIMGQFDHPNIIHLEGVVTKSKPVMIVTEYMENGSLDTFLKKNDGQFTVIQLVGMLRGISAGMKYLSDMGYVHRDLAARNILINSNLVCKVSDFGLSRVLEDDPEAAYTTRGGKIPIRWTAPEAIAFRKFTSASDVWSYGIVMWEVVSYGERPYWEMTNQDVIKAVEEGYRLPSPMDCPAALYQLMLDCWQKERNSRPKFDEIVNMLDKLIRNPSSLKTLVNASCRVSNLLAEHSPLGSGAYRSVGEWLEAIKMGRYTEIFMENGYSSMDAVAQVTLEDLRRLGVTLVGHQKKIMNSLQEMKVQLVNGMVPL

PAK1 = PAK1 (Homo sapiens, UniProt Q13153)
INSRR = INSRR (Homo sapiens, UniProt P14616)
ZAP70 = ZAP70 (Homo sapiens, UniProt P43403)
HIPK1 = HIPK1 (Homo sapiens, UniProt Q86Z02)
IRAK1 = IRAK1 (Homo sapiens, UniProt P51617)
IRAK1, sequence (P51617 whole entry): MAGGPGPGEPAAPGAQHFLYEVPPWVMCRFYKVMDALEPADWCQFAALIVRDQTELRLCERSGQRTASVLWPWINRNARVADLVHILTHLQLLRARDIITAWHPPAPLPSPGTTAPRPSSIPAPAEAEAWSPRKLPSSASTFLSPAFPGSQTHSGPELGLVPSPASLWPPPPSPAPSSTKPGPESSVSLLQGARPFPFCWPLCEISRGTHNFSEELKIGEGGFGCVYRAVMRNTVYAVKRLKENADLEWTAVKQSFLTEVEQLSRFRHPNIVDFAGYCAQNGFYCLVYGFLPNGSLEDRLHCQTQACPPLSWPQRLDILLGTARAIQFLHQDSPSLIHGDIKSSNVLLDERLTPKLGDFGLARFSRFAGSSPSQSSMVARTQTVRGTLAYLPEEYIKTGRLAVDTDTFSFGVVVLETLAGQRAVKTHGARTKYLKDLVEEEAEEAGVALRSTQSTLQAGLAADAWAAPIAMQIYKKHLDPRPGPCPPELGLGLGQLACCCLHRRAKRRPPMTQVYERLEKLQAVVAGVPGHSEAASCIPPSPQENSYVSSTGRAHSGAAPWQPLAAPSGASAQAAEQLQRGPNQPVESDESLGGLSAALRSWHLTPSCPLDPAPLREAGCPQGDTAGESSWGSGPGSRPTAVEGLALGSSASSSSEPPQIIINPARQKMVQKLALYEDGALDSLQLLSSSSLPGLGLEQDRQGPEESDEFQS

LZK = target: T1, LZK (Homo sapiens, UniProt O43283)
T1 construct: gene MAP3K13
T1 sequence (O43283 whole entry): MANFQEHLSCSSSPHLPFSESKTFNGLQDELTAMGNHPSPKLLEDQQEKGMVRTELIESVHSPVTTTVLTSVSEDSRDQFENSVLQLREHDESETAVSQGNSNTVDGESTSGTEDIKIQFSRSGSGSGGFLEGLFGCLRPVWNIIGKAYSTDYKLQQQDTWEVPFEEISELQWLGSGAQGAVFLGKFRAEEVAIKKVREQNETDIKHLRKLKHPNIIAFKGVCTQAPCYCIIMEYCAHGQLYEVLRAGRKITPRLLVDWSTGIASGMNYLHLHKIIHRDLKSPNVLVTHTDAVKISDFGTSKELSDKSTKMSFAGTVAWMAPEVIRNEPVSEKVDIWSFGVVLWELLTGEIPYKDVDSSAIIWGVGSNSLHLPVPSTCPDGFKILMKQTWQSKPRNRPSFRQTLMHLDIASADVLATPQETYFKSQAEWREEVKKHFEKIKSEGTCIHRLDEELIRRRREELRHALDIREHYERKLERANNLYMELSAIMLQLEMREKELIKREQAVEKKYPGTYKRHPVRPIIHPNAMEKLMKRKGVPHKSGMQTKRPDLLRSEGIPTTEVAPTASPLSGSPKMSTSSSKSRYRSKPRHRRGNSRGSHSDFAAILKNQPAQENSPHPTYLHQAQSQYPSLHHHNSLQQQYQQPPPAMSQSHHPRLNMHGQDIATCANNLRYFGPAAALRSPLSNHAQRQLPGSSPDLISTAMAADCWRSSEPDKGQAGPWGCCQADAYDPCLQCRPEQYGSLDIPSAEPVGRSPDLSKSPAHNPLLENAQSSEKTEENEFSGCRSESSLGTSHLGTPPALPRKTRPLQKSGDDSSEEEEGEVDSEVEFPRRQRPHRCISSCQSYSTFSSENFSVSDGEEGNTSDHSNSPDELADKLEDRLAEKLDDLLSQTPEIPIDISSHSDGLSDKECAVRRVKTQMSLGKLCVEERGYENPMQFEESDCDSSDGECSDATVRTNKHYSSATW

MAP3K3 = MAP3K3 (Homo sapiens, UniProt Q99759)
HIPK3 = HIPK3 (Homo sapiens, UniProt Q9H422)
ACVR1 = ACVR1 (Homo sapiens, UniProt Q04771)
CLK1 = CLK1 (Homo sapiens, UniProt P49759)
TLK1 = TLK1 (Homo sapiens, UniProt Q9UKI8)
SNRK = SNRK (Homo sapiens, UniProt Q9NRH2)
SNRK, sequence (Q9NRH2 whole entry): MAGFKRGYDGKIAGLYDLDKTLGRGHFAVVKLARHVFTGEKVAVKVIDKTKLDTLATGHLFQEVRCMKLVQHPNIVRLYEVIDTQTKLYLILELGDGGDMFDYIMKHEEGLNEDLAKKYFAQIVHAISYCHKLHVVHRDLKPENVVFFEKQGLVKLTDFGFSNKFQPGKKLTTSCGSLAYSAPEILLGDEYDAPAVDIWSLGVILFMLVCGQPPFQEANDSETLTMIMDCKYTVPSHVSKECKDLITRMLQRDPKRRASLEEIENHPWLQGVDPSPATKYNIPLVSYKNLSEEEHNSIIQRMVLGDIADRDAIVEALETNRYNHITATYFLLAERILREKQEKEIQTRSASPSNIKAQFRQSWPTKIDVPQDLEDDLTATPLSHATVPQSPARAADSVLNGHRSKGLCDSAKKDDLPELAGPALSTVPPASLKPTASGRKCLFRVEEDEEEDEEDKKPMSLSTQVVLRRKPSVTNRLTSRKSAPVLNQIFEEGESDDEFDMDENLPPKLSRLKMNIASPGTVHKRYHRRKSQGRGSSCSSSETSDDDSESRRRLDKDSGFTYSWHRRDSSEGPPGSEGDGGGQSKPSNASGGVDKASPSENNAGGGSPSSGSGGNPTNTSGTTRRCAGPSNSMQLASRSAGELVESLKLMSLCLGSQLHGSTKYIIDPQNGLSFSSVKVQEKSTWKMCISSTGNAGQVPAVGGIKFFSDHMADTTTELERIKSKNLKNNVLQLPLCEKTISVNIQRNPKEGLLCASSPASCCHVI

HUNK = HUNK (Homo sapiens, UniProt P57058)
GSK3A = GSK3A (Homo sapiens, UniProt P49840)
GSK3A, sequence (P49840 whole entry): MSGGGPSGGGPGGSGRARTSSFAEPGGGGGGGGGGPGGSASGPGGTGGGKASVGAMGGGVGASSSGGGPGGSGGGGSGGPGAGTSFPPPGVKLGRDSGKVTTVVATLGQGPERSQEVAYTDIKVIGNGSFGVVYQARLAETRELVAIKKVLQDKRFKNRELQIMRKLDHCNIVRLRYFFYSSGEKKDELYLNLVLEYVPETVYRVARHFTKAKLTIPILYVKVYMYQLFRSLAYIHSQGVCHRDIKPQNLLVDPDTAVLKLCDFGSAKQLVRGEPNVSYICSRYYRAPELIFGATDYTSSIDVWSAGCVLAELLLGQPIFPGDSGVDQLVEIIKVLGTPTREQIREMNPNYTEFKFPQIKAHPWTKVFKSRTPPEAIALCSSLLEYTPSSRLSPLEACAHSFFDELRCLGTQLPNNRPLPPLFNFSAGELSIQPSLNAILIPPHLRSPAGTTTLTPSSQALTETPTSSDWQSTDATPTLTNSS

ABL1-nonphosphorylated = target: T2, ABL1-nonphosphorylated (Homo sapiens, UniProt P00519)
T2 construct: nonphosphorylated

c1ccc2c(c1)Sc1ccccc1N2CCN1CCOCC1 [J54] was tested, and the remaining binding (CSNK1A1) was 100%, the remaining binding (CLK3) was 92% and the remaining binding (GRK4) was 54%. For the same molecule, the remaining binding (EPHA5) was 100%, the remaining binding (PAK1) was 93% and the remaining binding (INSRR) was 85%. For the same molecule, the remaining binding (ZAP70) was 100%, the remaining binding (HIPK1) was 85% and the remaining binding (IRAK1) was 100%. It also gave a remaining binding (LZK) of 92%, a remaining binding (MAP3K3) of 100% and a remaining binding (HIPK3) of 100%. The remaining binding (ACVR1) was 94%, the remaining binding (CLK1) was 85% and the remaining binding (TLK1) was 16%. For the same molecule, the remaining binding (SNRK) was 59%, the remaining binding (HUNK) was 58% and the remaining binding (GSK3A) was 80%. It also gave a remaining binding (ABL1-nonphosphorylated) of 95%.
